Columns and labels:
[1] = requires twice daily dosing; cited from earlier work
[2] = tested on: factor VII activity and prothrombin fragment F1+2; settings: in vivo; cited from earlier work
[3] = tested on: patients with idiopathic venous thromboembolism; experiment: PREVENT trial: bleeding, mortality, stroke, cancer, myocardial infarction, drug discontinuation; format: in vivo, human
Excerpt: (§1) All participants were followed for recurrent VTE, major bleeding events, and all-cause mortality.
(§2) All index events were confirmed by objective criteria at the central Clinical Coordinating Center based upon venography, compression ultrasound or MRI reports (for deep vein thrombosis) or by ventilation/perfusion scans, angiograms, or chest computed tomography scans (for pulmonary embolism). Idiopathic events were defined as those not occurring within 90 days of surgery, trauma, or a diagnosis of metastatic cancer. […] Every patient gave written informed consent and the study protocol was approved by each institutional review board.
(§3) Randomization was stratified by clinical site, time since index event (≦6 months, >6 months) and by whether the index event was the patient's first ever VTE. All participants were then followed with office visits once every two months that included blinded INR evaluations and dose adjustments. To further ensure blinding, sham dose adjustments were made in the placebo group.
(§4) As PREVENT was specifically designed to evaluate clinically relevant recurrent thromboembolic events, no surveillance for asymptomatic thrombosis was undertaken. Rather, at each visit the occurrence of any incident clinical events since the last visit two months earlier was evaluated. All endpoints were reviewed by a committee of physicians unaware of study drug assignment. The endpoint of recurrent deep vein thrombosis was confirmed if there was a positive venography study, doppler compression ultrasound, or MRI. Events documented by clinical diagnosis alone were not confirmed. […] Major hemorrhage was defined as any bleeding episode that led either to hospitalization or transfusion.
(§5) As an index of net clinical benefit, we defined on an a priori basis a composite endpoint of recurrent VTE, major hemorrhage, and all-cause mortality. Incident stroke events were also monitored. These were classified as hemorrhagic or thromboembolic on the basis of clinical records or CT/MRI scanning which were available for all episodes. To avoid double-counting, hemorrhagic strokes were considered as major hemorrhages in analyses using the combined endpoint of recurrent thrombosis, major hemorrhage, and all-cause mortality.
The method of Kaplan and Meier was used to estimate the probability of recurrence by time within treatment groups. Estimation of the number of patients needed to treat (NNT) to prevent one recurrent event was based on rates at one year. […] The hypothesis of a varying effect of treatment over time was tested in a proportional hazards model including an interaction of treatment with time. Tests and estimates of treatment effects on the composite endpoint used the same methods.

[4] = tested on: patients with idiopathic venous thromboembolism; experiment: PREVENT trial: recurrent venous thromboembolism; format: in vivo, human
Excerpt: as §1, §2
The run-in phase was also used to exclude individuals with less than 80 percent compliance.
as §3, §4
Comparisons between the warfarin and placebo groups in the distributions of continuous variables used Wilcoxon rank sum tests; for categorical variables, comparisons used Chi-square tests. The primary analysis was an intention-to-treat comparison of the difference between time to first confirmed recurrent VTE after randomization in the two treatment arms using a two-sided log-rank test. The method of Kaplan and Meier was used to estimate the probability of recurrence by time within treatment groups. Estimation of the number of patients needed to treat (NNT) to prevent one recurrent event was based on rates at one year. We used the proportional hazards model for estimation of the relative hazard of recurrent VTE associated with low-intensity warfarin treatment and obtained confidence intervals from this model. The hypothesis of a varying effect of treatment over time was tested in a proportional hazards model including an interaction of treatment with time. Tests and estimates of treatment effects on the composite endpoint used the same methods.
The primary pre-specified subgroup analysis evaluated the effect of treatment separately in persons with and without either factor V Leiden or the prothrombin mutation. The hypothesis of a different effect of treatment by genetic status was tested in a proportional hazards model including the interaction of treatment with the presence of either factor V Leiden or G20210A prothrombin mutation. Other descriptive comparisons within subgroups used the same methods.

[5] = tested on: International Normalized Ratio; experiment: PREVENT trial: blinded INR evaluation (CoaguChek fingerstick); format: in vivo, human; settings: during follow-up; interquartile range 1.4 to 2.0
Excerpt: During the run-in, at randomization, and throughout follow-up, all INR assessments at each study site were made using specially designed fingerstick devices with an identical thromboplastin [International Sensitivity Index 2.0] (CoaguChek, Roche Diagnostics, Indianapolis, Ind.). These devices were altered electronically to provide a coded study value which was transmitted to the Data Coordinating Center. All dose adjustments were made in a blinded manner using a simple clinical algorithm (Appendix A).
as §3

[6] = tested on: patients with idiopathic venous thromboembolism; experiment: PREVENT trial: composite endpoint of recurrent VTE, major hemorrhage and all-cause mortality; format: in vivo, human
Excerpt: as §1, §5
Comparisons between the warfarin and placebo groups in the distributions of continuous variables used Wilcoxon rank sum tests; for categorical variables, comparisons used Chi-square tests. The primary analysis was an intention-to-treat comparison of the difference between time to first confirmed recurrent VTE after randomization in the two treatment arms using a two-sided log-rank test. The method of Kaplan and Meier was used to estimate the probability of recurrence by time within treatment groups. Estimation of the number of patients needed to treat (NNT) to prevent one recurrent event was based on rates at one year. […]

CCOC(=O)CN[C@@H](C(=O)N1CC[C@H]1C(=O)NCc1ccc(/C(N)=N\O)cc1)C1CCCCC1 [ximelagatran]
half-life [1]: relatively short

CC(=O)CC(c1ccccc1)c1c(O)c2ccccc2oc1=O (centres unmarked) [low-intensity warfarin, warfarin]
reducing biochemical markers of coagulation such as factor VII activity and levels of prothrombin fragment F1+2 [2]: effective | Cancer, Rate ([3]; in vivo): 0.7 events per 100 person years | Deaths, Rate ([3]; in vivo): 0.7 events per 100 person years | Major bleeding, Rate ([3]; in vivo): 0.9 events per 100 person years | Myocardial Infarction, Rate ([3]; in vivo): 0.5 events per 100 person years | confirmed strokes ([3]; in vivo): 1 | patients in whom study drug was discontinued before completion of follow-up ([3]; in vivo): 62 patients | major bleeds that were gastrointestinal ([3]; of 5 major bleeds): 3 | major bleeds that were hematuria in the setting of renal calculus removal ([3]; of 5 major bleeds): 1 | major bleeds that were lower-extremity hematoma ([3]; of 5 major bleeds): 1 | major hemorrhage requiring transfusion of packed red blood cells ([3]; patient was receiving full-dose warfarin at the time of the bleed): 1 | reduction in risk of recurrent VTE ([4]; analysis by use or non-use of long-term anticoagulation at the time of the recurrent event): 81% | participants with recurrent VTE after cessation of study drug ([4]; in vivo): 7 | Recurrent VTE, Rate ([4]; intention-to-treat): 2.6 events per 100 person years | reduction in risk of recurrent VTE ([4]; men): 53% | Recurrent VTE, Rate ([4]; subgroup: Factor V Leiden or Prothrombin Mutation absent): 2.7 events per 100 person years | Recurrent VTE, Rate ([4]; subgroup: Factor V Leiden or Prothrombin Mutation present): 2.2 events per 100 person years | Recurrent VTE, Rate ([4]; subgroup: age 30-44 years): 3.3 events per 100 person years | Recurrent VTE, Rate ([4]; subgroup: age 45-64 years): 1.7 events per 100 person years | Recurrent VTE, Rate ([4]; subgroup: age 65-89 years): 3.9 events per 100 person years | Recurrent VTE, Rate ([4]; subgroup: men): 4.0 events per 100 person years | Recurrent VTE, Rate ([4]; subgroup: women): 1.1 events per 100 person years | risk reduction of recurrent VTE ([4]; those without factor V Leiden or the prothrombin mutation): 58% | Recurrent VTE, Rate ([4]; time after randomization >1 year): 2.5 events per 100 person years | Recurrent VTE, Rate ([4]; time after randomization ≦1 year): 2.7 events per 100 person years | patients needed to be treated to prevent one recurrent event ([4]; treated for one year, based on rates at one year): 14 patients | risk reduction of recurrent VTE ([4]; versus placebo, intention-to-treat): 64% | reduction in risk of recurrent VTE ([4]; women): 80% | median INR [5]: 1.7 | Composite Endpoint, Rate ([6]; first VTE, major bleed, or death): 4.1 events per 100 person years | reduction in composite study endpoint of recurrent VTE, major hemorrhage, or death ([6]; versus placebo): 48%

Reference: patent US20040235942A1 (priority 2003, published 2004)
